Results published in patent US11427588B2, “Compositions and methods for treating neurodegenerative diseases and cardiomyopathy” (THE REGENTS OF THE UNIVERSITY OF CALIFORNIA, priority 2013, dated 2022).

Tested on: HeLa cells
Assay: Parkin recruitment to depolarized mitochondria in HeLa cells, PINK1 form not stated
Type: cell-based
Experimental: Parkin phosphorylation and mitochondrial translocation assay: HeLa cells were grown in DMEM supplemented with 10% FBS. Log phase cells were plated in 24 well plates with glass coverslips (Mattek) pretreated with fibronectin. Cells were pretreated with 50 μM of the indicated compound, followed by transfection with MitoGFP, mCherry Parkin, and full length PINK1FLAG3 in a 1:4:2 ratio using Fugene 6 (Promega). Fields of cells were selected by expression of MitoGFP (6 fields/well-3 wells/condition) and imaged at five-minute intervals following depolarization with 5 μM CCCP. Quantification was performed according to published protocols^3 and by creation of a Matlab based script.
Our ability to enhance PINK1 activity in-vitro using KTP led us to investigate means by which to achieve enhanced activity in cells expressing PINK1. […] We treated cells with either kinetin or adenine (FIG. 2A) and measured Parkin localization following mitochondrial depolarization with CCCP (FIG. 2B). HeLa cells, which have low levels of endogenous PINK1 and PARKIN, were transfected with wildtype or PINK1^G309D, mCherryParkin, and mitoGFP. After 48 hours of incubation with 25 μM adenine, kinetin or equivalent DMSO, we imaged CCCP-mediated depolarization of mitochondria (FIGS. 2C, 2D) and calculated the percentage of GFP labelled mitochondria with mCherryParkin associated (FIG. 2E). […]

c1coc(CNc2ncnc3[nH]cnc23)c1 [kinetin]
Parkin recruitment to CCCP depolarized mitochondria: accelerates
